target: recombinant human mGluR2 (Homo sapiens (Human), UniProt Q14416); test: FLIPR Ca2+ mobilization assay: inhibition of glutamate-dependent mGluR2 activity; type: cell-based; conditions: CHO dhfr- cells stably expressing recombinant human mGluR2 and Gα16, Fluo-4 AM, FLIPR384; inhibition of response to 2,500 nM glutamate
Protocol: Inhibition constants (IC50s; the concentration of compound required to provide 50% of maximal activity) are determined as follows. The compounds of the invention were tested in a fluorescence laser imaging plate reader based assay. This assay is a common functional assay to monitor Ca^2+ mobilization in whole cells expressing recombinant receptor coupled with a promiscuous G-protein. CHO (Chinese hamster ovary) dhfr− cells stably expressing recombinant human mGluR2 and Gα16 loaded with Fluo-4 AM (Invitrogen, Carlsbad Calif., USA) were treated with various concentrations of each of the tested compounds of the invention and the Ca^2+ response was monitored on a FLIPR384 instrument (Molecular Devices, Sunnydale Calif., USA). […] The maximum calcium response at each concentration of compound for agonist or antagonist were plotted as dose responses and the curves were fitted with a four parameter logistic equation giving IC50 and Hill coefficient using the iterative non-linear curve fitting software ADA (Merck & Co., Inc.). Data in the following table lists the activity of each compound to inhibit glutamate-dependent mGluR2 activity in this cellular assay.

Sequence of recombinant human mGluR2 (Q14416 19-872): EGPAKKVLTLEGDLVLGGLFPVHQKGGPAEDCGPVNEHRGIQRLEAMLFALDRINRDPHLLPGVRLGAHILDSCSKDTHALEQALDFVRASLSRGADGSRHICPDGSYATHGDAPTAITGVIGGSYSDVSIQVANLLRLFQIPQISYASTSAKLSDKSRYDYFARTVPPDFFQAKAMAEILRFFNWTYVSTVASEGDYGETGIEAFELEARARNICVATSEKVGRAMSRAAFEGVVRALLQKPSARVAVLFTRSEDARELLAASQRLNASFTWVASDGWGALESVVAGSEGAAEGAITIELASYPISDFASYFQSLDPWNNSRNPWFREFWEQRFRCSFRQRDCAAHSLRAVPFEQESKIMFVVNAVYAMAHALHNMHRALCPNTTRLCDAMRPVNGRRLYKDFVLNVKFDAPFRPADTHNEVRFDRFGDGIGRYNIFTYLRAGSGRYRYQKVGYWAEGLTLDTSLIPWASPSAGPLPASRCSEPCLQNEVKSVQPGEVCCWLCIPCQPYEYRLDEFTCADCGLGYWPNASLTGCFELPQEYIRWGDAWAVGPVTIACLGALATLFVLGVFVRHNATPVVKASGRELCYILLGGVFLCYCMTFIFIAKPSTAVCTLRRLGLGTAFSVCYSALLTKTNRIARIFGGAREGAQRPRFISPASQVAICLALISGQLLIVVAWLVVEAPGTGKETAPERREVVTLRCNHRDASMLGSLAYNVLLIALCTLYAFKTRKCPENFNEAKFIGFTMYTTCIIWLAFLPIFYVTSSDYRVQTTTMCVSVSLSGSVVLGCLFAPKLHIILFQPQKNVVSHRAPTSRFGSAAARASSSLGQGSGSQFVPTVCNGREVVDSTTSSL

**Q.** How did the IC50 turn out when NC(=O)c1cc(-c2ncc(Cl)cc2F)c2c(n1)[C@@H]1CC[C@H](C2)O1 (single isomer, unassigned) [Example 1-7B] was run?
**A.** 172 nM

**Q.** With NC(=O)c1cc(-c2ccc(F)cc2F)c2c(n1)O[C@@H](CO)CC2 (single isomer, unassigned) [Example 2-1B] as the compound, how does the IC50 read?
**A.** 179 nM

**Q.** With NC(=O)c1cc(-c2ccc(F)cc2F)c2c(n1)[C@@H]1CC[C@H]2O1 (single isomer, unassigned) [Example 5-1B] as the compound, how does the IC50 read?
**A.** 500 nM

**Q.** For NC(=O)c1cc(-c2ccc(F)cc2F)c2c(n1)O[C@H](CF)CC2 (single isomer, unassigned) [Example 3-6A], which IC50 is on record?
**A.** 52 nM

**Q.** With C[C@H]1Cc2c(-c3ccc(F)cc3F)cc(C(N)=O)nc2O[C@H]1COC(F)F (single isomer, unassigned) [Example 3-9D] as the compound, how does the IC50 read?
**A.** 9 nM

**Q.** NC(=O)c1cc(-c2ncc(F)cc2F)c2c(n1)[C@H]1CC[C@@H](C2)O1 (single isomer, unassigned) [Example 1-6A] was tested. Which IC50 did it give?
**A.** > 3000 nM

**Q.** For NC(=O)c1cc(-c2ccc(F)cc2F)c2c(n1)O[C@H](CC(F)(F)F)CC2 (single isomer, unassigned) [Example 3-8A], which IC50 is on record?
**A.** 12 nM

**Q.** Which IC50 does the source give for C[C@H](OC(F)F)[C@@H]1CCc2c(-c3ccc(F)cc3F)cc(C(N)=O)nc2O1 (single isomer, unassigned) [Example 2-9A] here?
**A.** 18 nM

**Q.** How did the IC50 turn out when NC(=O)c1cc(-c2ccc(F)cc2)c2c(n1)OC(COC(F)F)CC2 (single isomer, unassigned) [Example 3-2B, (R)- or (S)-2-((difluoro-methoxy)methyl)-5-(4-fluorophenyl)-3,4-dihydro-2H-pyrano[2,3-b]pyridine-7-carboxamide] was run?
**A.** 86 nM

**Q.** Which IC50 does the source give for Cn1cc(-c2cc(C(N)=O)nc3c2CC2CCC3O2)cn1 (single isomer, unassigned) [Example 1-4A, (6R,9S)- or (6S,9R)-4-(1-methyl-1H-pyrazol-4-yl)-6,7,8,9-tetrahydro-5H-6,9-epoxycyclo-hepta[b]pyridine-2-carboxamide] here?
**A.** > 3000 nM

**Q.** For C[C@]1(COC(F)F)CCc2c(-c3ccc(F)cc3F)cc(C(N)=O)nc2O1 (single isomer, unassigned) [Example 2-8B], which IC50 is on record?
**A.** 14 nM

**Q.** For NC(=O)c1cc(-c2ccc(F)cc2F)c2c(n1)O[C@@H](CC(F)(F)F)CC2 (single isomer, unassigned) [Example 3-8B], which IC50 is on record?
**A.** 24 nM

**Q.** NC(=O)c1cc(-c2ccc(F)cc2F)c2c(n1)O[C@@H](C1CC1)CC2 [Example 2-3A, (R)-2-cyclopropyl-5-(2,4-difluorophenyl)-3,4-dihydro-2H-pyrano[2,3-b]pyridine-7-carboxamide] was tested. Which IC50 did it give?
**A.** 20 nM

**Q.** CN(C[C@H]1CCc2c(-c3ccc(F)cc3F)cc(C(N)=O)nc2O1)CC(F)(F)F (single isomer, unassigned) [Example 4-1B] was tested. Which IC50 did it give?
**A.** 74 nM

**Q.** Which IC50 does the source give for NC(=O)c1cc(-c2ccc(F)cc2F)c2c(n1)O[C@H](CNCC(F)(F)F)CC2 [Example 4-2A, (S)-5-(2,4-difluoropheny)-2-(((2,2,2-trifluoroethyl)amino)methyl)-3,4-dihydro-2H-pyrano[2,3-b]pyridine-7-carboxamide] here?
**A.** 21 nM

**Q.** With NC(=O)c1cc(-c2ncc(F)cc2F)c2c(n1)[C@@H]1CC[C@H](C2)O1 (single isomer, unassigned) [Example 1-6B] as the compound, how does the IC50 read?
**A.** 1800 nM

**Q.** Which IC50 does the source give for Cc1ncc(-c2cc(C(N)=O)nc3c2CCC(COC(F)F)O3)s1 (single isomer, unassigned) [Example 3-3B, (R)- or (S)-2-((difluoro-methoxy)methyl)-5-(2-methylthiazol-5-yl)-3,4-dihydro-2H-pyrano[2,3-b]pyridine-7-carboxamide] here?
**A.** 2520 nM

**Q.** C[C@H]1Cc2c(-c3ccc(F)cc3F)cc(C(N)=O)nc2O[C@@H]1COC(F)F (single isomer, unassigned) [Example 3-9B] was tested. Which IC50 did it give?
**A.** 19 nM

**Q.** Which IC50 does the source give for CC(C)[C@@H]1CCc2c(-c3ccc(F)cc3F)cc(C(N)=O)nc2O1 (single isomer, unassigned) [Example 2-4A] here?
**A.** 20 nM

**Q.** Which IC50 does the source give for NC(=O)c1cc(-c2ncc(Cl)cc2F)c2c(n1)[C@H]1CC[C@@H](C2)O1 (single isomer, unassigned) [Example 1-7A] here?
**A.** > 3000 nM

**Q.** Which IC50 does the source give for NC(=O)c1cc(-c2ccc(F)cc2F)c2c(n1)O[C@@H](C(F)F)CC2 [Example 3-7A, (R)-2-(difluoromethyl)-5-(2,4-difluorophenyl)-3,4-dihydro-2H-pyrano[2,3-b]pyridine-7-carboxamide] here?
**A.** 18 nM

**Q.** How did the IC50 turn out when NC(=O)c1cc(-c2ccc(F)cc2F)c2c(n1)[C@H]1CC[C@@H](C2)O1 [Example 1-2A, (6S,9R)-4-(2,4-difluorophenyl)-6,7,89-tetrahydro-5H-6,9-epoxycyclohepta[b]pyridine-2-carboxamide] was run?
**A.** 376 nM

— US10335399B2, “Chromane, isochromane and dihydroisobenzofuran derivatives as mGluR2—negative allosteric modulators, compositions, and their use” (Merck Sharp & Dohme Corp., priority 2016, dated 2019)
